Measurements: PubChem BioAssay (NCI)
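All cell lines were grown in 96-well plates and treated with compound for 48 hours. GI50 marks 50% less growth. TGI: total growth inhibition.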

Tests used:
Assay in all cases: NCI-60 cell line screen, 48 h
[1] = system: U251 CNS
[2] = system: COLO 205 colon
[3] = system: SK-MEL-28 melanoma
[4] = system: SNB-19 CNS
[5] = system: IGROV1 ovarian
[6] = system: SK-OV-3 ovarian
[7] = system: SK-MEL-5 melanoma
[8] = system: ACHN renal
[9] = system: PC-3 prostate
[10] = system: MALME-3M melanoma

CC1=C([Se]CC(OC(=O)CC[Se]c2ccccc2)C(=O)NC(C)(C)C)C(=O)c2ccccc2C1=O (stereo unspecified)
GI50 [1]: 1.14 µM | TGI [1]: 3.77 µM | GI50 [2]: 1.6 µM | TGI [2]: 3.13 µM | GI50 [3]: 2.08 µM | TGI [3]: 3.55 µM | GI50 [4]: 0.638 µM | TGI [4]: 2.05 µM | GI50 [5]: 1.53 µM | TGI [5]: 2.94 µM | GI50 [6]: 1.45 µM | TGI [6]: 2.81 µM | GI50 [7]: 1.82 µM | TGI [7]: 3.27 µM | GI50 [8]: 1.86 µM | TGI [8]: 3.69 µM | GI50 [9]: 1.48 µM | TGI [9]: 2.8 µM | GI50 [10]: 2.1 µM | TGI [10]: 4.46 µM

Cc1c2cnccc2c(C)c2c1c1cc(C#N)ccc1n2C
GI50 [1]: 0.204 µM | TGI [1]: 1.12 µM | GI50 [2]: 0.18 µM | TGI [2]: 1.08 µM | GI50 [3]: 0.285 µM | TGI [3]: 0.737 µM | GI50 [4]: 0.181 µM | TGI [4]: 1.94 µM | GI50 [5]: 0.14 µM | TGI [5]: 1.1 µM | GI50 [6]: 0.245 µM | TGI [6]: 0.92 µM | GI50 [7]: 0.224 µM | TGI [7]: 0.591 µM | GI50 [8]: 0.0457 µM | TGI [8]: 0.456 µM | GI50 [9]: 0.217 µM | TGI [9]: 1.11 µM | GI50 [10]: 0.195 µM | TGI [10]: 0.548 µM

CCSC1=NC2C(N(CC)C(=O)N2CC)N1/N=C/C=C/c1ccccc1[N+](=O)[O-] (stereo unspecified)
GI50 [1]: 0.174 µM | TGI [1]: > 100 µM | GI50 [3]: 5.83 µM | TGI [3]: > 100 µM | GI50 [4]: 0.372 µM | TGI [4]: > 100 µM | GI50 [5]: 0.246 µM | TGI [5]: > 100 µM | GI50 [6]: 0.329 µM | TGI [6]: > 100 µM | GI50 [7]: 0.112 µM | TGI [7]: 0.538 µM | GI50 [8]: 0.121 µM | TGI [8]: > 100 µM | GI50 [9]: 0.187 µM | TGI [9]: > 100 µM | GI50 [10]: 0.135 µM | TGI [10]: > 100 µM

COc1ccc(C2=Nn3c(nnc3-c3cc(Cl)cc(Cl)c3Cl)SC2)cc1
GI50 [1]: 0.412 µM | TGI [1]: 24.7 µM | GI50 [2]: 0.792 µM | TGI [2]: 7.15 µM | TGI [3]: > 100 µM | GI50 [4]: 0.402 µM | TGI [4]: 55.1 µM | GI50 [5]: 0.339 µM | TGI [5]: 3.59 µM | GI50 [6]: 0.522 µM | TGI [6]: > 100 µM | GI50 [7]: 0.273 µM | GI50 [8]: 0.859 µM | TGI [8]: > 100 µM | GI50 [9]: 0.687 µM | TGI [9]: > 100 µM | GI50 [10]: 0.44 µM | TGI [10]: > 50.5 µM

FC(F)(F)c1cccc(-c2nc3nc(Cl)c(Cl)nc3[nH]2)c1
TGI [1]: 13.6 µM | TGI [2]: 2.98 µM | TGI [3]: 27.3 µM | TGI [4]: > 59.2 µM | TGI [5]: > 100 µM | TGI [6]: > 90.1 µM | TGI [7]: 3.16 µM | TGI [8]: > 28.2 µM | TGI [9]: 9.37 µM | TGI [10]: 12.5 µM

CN(C)CCNC(=O)Cn1ccc(=O)c2cc([N+](=O)[O-])ccc21
TGI [1]: > 100 µM | TGI [2]: > 100 µM | TGI [3]: > 100 µM | TGI [4]: > 100 µM | TGI [5]: > 100 µM | TGI [6]: > 100 µM | TGI [7]: > 100 µM | TGI [8]: > 100 µM | TGI [9]: > 100 µM | TGI [10]: > 100 µM

O=C(Nc1cccc(Cl)c1)Nn1cnnc1
GI50 [1]: > 50 µM | TGI [1]: > 100 µM | GI50 [2]: > 50 µM | TGI [2]: > 100 µM | GI50 [3]: > 50 µM | TGI [3]: > 100 µM | GI50 [4]: > 50 µM | TGI [4]: > 100 µM | GI50 [5]: > 50 µM | TGI [5]: > 100 µM | GI50 [6]: > 50 µM | TGI [6]: > 100 µM | GI50 [7]: > 50 µM | TGI [7]: > 100 µM | GI50 [8]: > 50 µM | TGI [8]: > 100 µM | GI50 [9]: > 50 µM | TGI [9]: > 100 µM | GI50 [10]: > 50 µM | TGI [10]: > 100 µM

CO/N=C(\COc1ccc2c(c1)[nH]c1ccccc12)c1ccc(OC)cc1
GI50 [1]: 15.2 µM | TGI [1]: > 100 µM | GI50 [2]: 92.3 µM | TGI [2]: > 100 µM | GI50 [3]: 11.8 µM | TGI [3]: 69.3 µM | GI50 [4]: 24.4 µM | TGI [4]: > 100 µM | GI50 [5]: 31.5 µM | TGI [5]: > 100 µM | GI50 [6]: 34.6 µM | TGI [6]: > 100 µM | GI50 [7]: 15.7 µM | TGI [7]: > 100 µM | GI50 [8]: 18.8 µM | TGI [8]: > 100 µM | GI50 [9]: 18.3 µM | TGI [9]: > 100 µM | GI50 [10]: 9.71 µM | TGI [10]: 74.6 µM

C/C(=N/O)c1cccc(Nc2cc(-n3nnc4ccccc43)nc3ccccc23)c1
GI50 [1]: 20.4 µM | TGI [1]: > 100 µM | GI50 [2]: 32.4 µM | TGI [2]: > 73 µM | GI50 [3]: 21.1 µM | TGI [3]: > 68 µM | GI50 [4]: 25.7 µM | TGI [4]: > 100 µM | GI50 [5]: 29.9 µM | TGI [5]: > 73 µM | GI50 [6]: 30.5 µM | TGI [6]: > 74.2 µM | GI50 [7]: 3.78 µM | TGI [7]: 13.7 µM | GI50 [8]: 14.2 µM | TGI [8]: 46.6 µM | GI50 [9]: 8.87 µM | TGI [9]: 33.5 µM | GI50 [10]: 16.8 µM | TGI [10]: 48 µM

O=C(O)c1nc(NCc2nc3cc(Cl)ccc3o2)n[nH]1
GI50 [1]: > 100 µM | TGI [1]: > 100 µM | GI50 [2]: > 100 µM | TGI [2]: > 100 µM | GI50 [3]: > 100 µM | TGI [3]: > 100 µM | GI50 [4]: > 100 µM | TGI [4]: > 100 µM | GI50 [5]: > 100 µM | TGI [5]: > 100 µM | GI50 [6]: > 100 µM | TGI [6]: > 100 µM | GI50 [7]: > 100 µM | TGI [7]: > 100 µM | GI50 [8]: > 100 µM | TGI [8]: > 100 µM | GI50 [9]: > 100 µM | TGI [9]: > 100 µM | GI50 [10]: > 100 µM | TGI [10]: > 100 µM

N#CC(C#N)=C/C=C(\Cl)c1ccc(Cl)cc1
GI50 [1]: 6.9 µM | TGI [1]: > 43.7 µM | GI50 [2]: 7.72 µM | TGI [2]: > 52.1 µM | GI50 [3]: 2.38 µM | TGI [3]: 45 µM | GI50 [4]: 18.5 µM | TGI [4]: > 55.2 µM | GI50 [5]: 7.46 µM | TGI [5]: 32 µM | GI50 [6]: 9.96 µM | TGI [6]: > 52.7 µM | GI50 [7]: 3.13 µM | TGI [7]: 11.5 µM | GI50 [8]: 9.96 µM | TGI [8]: 37.2 µM | GI50 [9]: 8.62 µM | TGI [9]: > 46.2 µM | GI50 [10]: 2.16 µM | TGI [10]: 7.63 µM

COC(=O)C1=C(O)C(C(=O)OC)C2CC(=O)CC1C2(C)C (stereo unspecified)
TGI [1]: > 100 µM | TGI [2]: > 100 µM | TGI [3]: > 100 µM | TGI [4]: > 100 µM | TGI [5]: > 100 µM | TGI [6]: > 100 µM | TGI [7]: > 100 µM | TGI [8]: > 100 µM | TGI [9]: > 100 µM | TGI [10]: > 100 µM

O=C(Oc1cccnc1)c1cccnc1Nc1ccnc(C(F)(F)F)c1
GI50 [1]: 14.3 µM | TGI [1]: 47.3 µM | GI50 [2]: 27.4 µM | TGI [2]: 72.4 µM | GI50 [3]: 38.1 µM | TGI [3]: > 100 µM | GI50 [4]: 48.9 µM | TGI [4]: > 100 µM | GI50 [5]: 9.51 µM | TGI [5]: > 100 µM | GI50 [6]: > 100 µM | TGI [6]: > 100 µM | GI50 [7]: 6.99 µM | TGI [7]: 63.4 µM | GI50 [8]: 21.7 µM | TGI [8]: 66 µM | GI50 [9]: 7.03 µM | TGI [9]: 56.1 µM | GI50 [10]: 13 µM | TGI [10]: 69.8 µM

CCC1(O)C(=O)OCc2c1cc1n(c2=O)Cc2cc3ccccc3nc2-1 (stereo unspecified)
TGI [1]: 0.57 µM | TGI [2]: 3.55 µM | TGI [3]: 18.4 µM | TGI [4]: 0.0667 µM | TGI [5]: 5.96 µM | TGI [6]: 7.11 µM | TGI [7]: 0.312 µM | TGI [8]: 0.519 µM | TGI [9]: 23.9 µM | TGI [10]: 11.8 µM
